In brackets after ≈: the same amount, converted by molar mass.
Key:
Cryptococcus neoformans [1] = test: Antifungal activity against Cryptococcus neoformans assessed as fungal growth inhibition; assay type: functional
Cryptococcus neoformans [2] = test: Antifungal activity against Cryptococcus neoformans; assay type: functional, organism-based
Saccharomyces cerevisiae = test: Antifungal activity against Saccharomyces cerevisiae assessed as inhibition of fungal growth; assay type: functional, organism-based
Aspergillus flavus = test: Antifungal activity against Aspergillus flavus assessed as inhibition of fungal growth; assay type: functional, organism-based
Cryptococcus neoformans [3] = test: Antimicrobial activity against Cryptococcus neoformans; assay type: functional
Candida albicans [4] = test: Antimicrobial activity against Candida albicans assessed as inhibition of microbial growth; assay type: functional
Candida tropicalis [5] = test: Antimicrobial activity against amphotericin-B-resistant Candida tropicalis; assay type: functional
Candida tropicalis [6] = test: Antimicrobial activity against nystatin-resistant Candida tropicalis; assay type: functional
Pyricularia oryzae [7] = test: Antifungal activity against Pyricularia oryzae; assay type: functional
Alternaria solani = test: Antifungal activity against Alternaria solani; assay type: functional
Candida albicans [8] = test: Antifungal activity against Candida albicans ATCC76615 assessed as inhibition of fungal growth by atomatic microplate reader analysis; assay type: functional
Cryptococcus neoformans [9] = test: Antifungal activity against Cryptococcus neoformans ATCC32609 assessed as inhibition of fungal growth by atomatic microplate reader analysis; assay type: functional
Aspergillus fumigatus = test: Antifungal activity against clinical strain Aspergillus fumigatus assessed as inhibition of fungal growth by atomatic microplate reader analysis; assay type: functional
Trichophyton rubrum = test: Antifungal activity against Trichophyton rubrum assessed as inhibition of fungal growth by atomatic microplate reader analysis; assay type: functional
Candida tropicalis [10] = test: Antifungal activity against clinical strain Candida tropicalis assessed as inhibition of fungal growth by atomatic microplate reader analysis; assay type: functional
Pichia kudriavzevii [11] = test: Antifungal activity against clinical strain Candida krusei assessed as inhibition of fungal growth by atomatic microplate reader analysis; assay type: functional
Lindra thalassiae = test: Antifungal activity against Lindra thalassiae assessed as lethal dose; assay type: functional; settings: Lindriella thalassiae; read-out: LD50 (the source's name)
Candida tropicalis [12] = test: Antifungal activity against Candida tropicalis assessed as fungal growth inhibition; assay type: functional
Nannizzia gypsea = test: Antifungal activity against Microsporum gypseum ATCC31388; assay type: functional
Pyricularia oryzae [13] = test: Antifungal activity against Pyricularia oryzae assessed as inhibition of fungal growth; assay type: functional
Aspergillus niger = test: Antifungal activity against Aspergillus niger; assay type: functional
Candida albicans [14] = test: Antimicrobial activity against Candida albicans assessed as reduction of microbial microbial growth; assay type: functional
Candida tropicalis [15] = test: Antifungal activity against Candida tropicalis; assay type: functional
Fusarium oxysporum = test: Antifungal activity against Fusarium oxysporum; assay type: functional
Botrytis cinerea = test: Antifungal activity against Botrytis cinerea AJ 117140 assessed as inhibition of fungal growth; assay type: functional
Globisporangium ultimum = test: Antifungal activity against Pythium ultimum IFO32210 assessed as inhibition of fungal growth; assay type: functional
Saprolegnia parasitica = test: Antifungal activity against Saprolegnia parasitica IFO8978 assessed as inhibition of fungal growth; assay type: functional
Nakaseomyces glabratus = test: Antifungal activity against fluconazole-resistant Candida glabrata by CLSI protocol based macrobroth dilution method; assay type: functional
Pichia kudriavzevii [16] = test: Antifungal activity against fluconazole-resistant Candida krusei by CLSI protocol based macrobroth dilution method; assay type: functional

CCCCC(C)C/C(=C/[C@@]1(CC)OC(=O)C[C@@H]1O)CC (stereo not given in full) [SIMPLEXOLIDE E] gave an MIC (Cryptococcus neoformans [1]) of 3.66 µg/mL (≈ 13 µM).

For CCC(C)CC(C)/C=C(C)/C=C/CC(C)C(O)C(C)/C=C(C)/C=C/C(O)C(C)c1cc(O)c(C2OC(CO)CC(O)C2O)c(=O)o1 (stereo not given), the IC50 (Cryptococcus neoformans [2]) was 1.56 µg/mL (≈ 2.41 µM) and the IC50 (Saccharomyces cerevisiae) was 1.56 µg/mL (≈ 2.41 µM).

CC[C@H](C)/C=C(C)/C=C/C1=CC2=C(Cl)C(=O)[C@@](C)(OC(C)=O)C(=O)C2=CO1 showed an IC50 (Aspergillus flavus) of 3.39 µg/mL (≈ 8.67 µM).

CCCCCCCCC(O)C(O)CC/C=C\CCCCCC(O)C(N)CO (stereo not given) showed an MIC (Cryptococcus neoformans [3]) of 0.2 µg/mL (≈ 0.516 µM), an MIC (Candida albicans [4]) of 0.4 µg/mL and an MIC (Candida tropicalis [5]) of 0.4 µg/mL (≈ 1.03 µM). It also gave an MIC (Candida tropicalis [6]) of 0.4 µg/mL (≈ 1.03 µM).

CC1CC[C@@H](O)/C=C/CC[C@H](O)C[C@@H](O)C/C=C\C=C\[C@@H](O)C/C=C/C=C\C(=O)O1 (stereo not given in full) gave an MIC (Pyricularia oryzae [7]) of 0.8 µg/mL (≈ 1.9 µM) and an MIC (Alternaria solani) of 0.8 µg/mL (≈ 1.9 µM).

CO[C@@H]1[C@@H](O)[C@H](O[C@@H]2[C@@H](O)[C@H](O[C@@H]3[C@@H](O)[C@H](O)[C@@H](O[C@H]4[C@H](O[C@H]5CC[C@@H]6C7=C[C@H](O)[C@]89C(=O)O[C@@](C)(CCC=C(C)C)[C@H]8CC[C@@]9(C)[C@@H]7CC[C@H]6C5(C)C)OC[C@@H](O[C@@H]5O[C@H](CO)[C@@H](O)[C@H](O[C@@H]6O[C@H](CO)[C@@H](O)[C@H](OC)[C@H]6O)[C@H]5O)[C@@H]4O)O[C@H]3C)O[C@H](CO)[C@H]2O)O[C@H](CO)[C@H]1O gave an MIC (Candida albicans [8]) of 0.7 µM (≈ 0.988 µg/mL), an MIC (Cryptococcus neoformans [9]) of 0.7 µM (≈ 0.988 µg/mL) and an MIC (Aspergillus fumigatus) of 0.7 µM (≈ 0.988 µg/mL). The MIC (Trichophyton rubrum) was 0.7 µM (≈ 0.988 µg/mL), the MIC (Candida tropicalis [10]) was 0.7 µM (≈ 0.988 µg/mL) and the MIC (Pichia kudriavzevii [11]) was 0.7 µM (≈ 0.988 µg/mL).

With CC(C)CC(=O)C[C@@H](C)[C@H]1CC[C@@]2(C)[C@H]3CC[C@H]4[C@](CO)(COS(=O)(=O)[O-])C(=O)CC[C@@]45C[C@@]35CC[C@]12C.[Na+] the LC50 (Lindra thalassiae) was 0.94 µg/mL.

CO[C@@H]1[C@@H](O)[C@H](O[C@@H]2[C@@H](O)[C@H](O[C@@H]3CO[C@@H](O[C@H]4CC[C@]5(C)[C@@H]6CC[C@]78C(=O)O[C@@](C)(C[C@H](CC(C)C)OC(C)=O)[C@H]7C(=O)C[C@@]8(C)C6=CC[C@H]5C4(C)C)[C@H](O[C@@H]4O[C@H](C)[C@@H](O[C@@H]5OC[C@@H](O)[C@H](O[C@@H]6O[C@H](CO)[C@@H](O)[C@H](OC)[C@H]6O)[C@H]5O)[C@H](O)[C@H]4O)[C@H]3O)O[C@H](CO)[C@H]2O)O[C@H](CO)[C@H]1O was tested, and the MIC (Candida tropicalis [12]) was 1.4 µM (≈ 2.04 µg/mL) and the MIC (Nannizzia gypsea) was 1.4 µM (≈ 2.04 µg/mL).

With CC(C)=CCn1cc(CC2NC(=O)C(C(C)C)NC2=O)c2ccccc21 (stereo not given) the MIC (Pyricularia oryzae [13]) was 0.127 µg/mL (≈ 0.359 µM).

C/C(=C\[C@@H](O)C/C(C)=C/CCc1ccoc1)C/C=C/c1ccoc1 gave an MIC (Aspergillus niger) of 2 µg/mL (≈ 6.13 µM), an MIC (Candida albicans [14]) of 0.25 µg/mL and an MIC (Candida tropicalis [15]) of 2 µg/mL (≈ 6.13 µM). For the same compound, the MIC (Fusarium oxysporum) was 1 µg/mL (≈ 3.06 µM).

Work on C=CC1OC1(C)CC(C)/C(C)=C/C=C(C)\C=C(OC)\C(=C/C(=O)OC)OC (stereo not given) yielded an MIC (Botrytis cinerea) of 3.1 µg/mL (≈ 8.23 µM), an MIC (Globisporangium ultimum) of 0.4 µg/mL (≈ 1.06 µM) and an MIC (Saprolegnia parasitica) of 0.1 µg/mL (≈ 0.266 µM).

COc1cc(/C=N/O)nc(-c2ccccn2)c1 [CAERULOMYCIN A] gave an MIC (Nakaseomyces glabratus) of 0.39 µg/mL (≈ 1.7 µM) and an MIC (Pichia kudriavzevii [16]) of 0.39 µg/mL (≈ 1.7 µM).

CO[C@@H]1[C@@H](O)[C@H](O[C@@H]2[C@@H](O)[C@H](O[C@@H]3[C@@H](O)[C@H](O)[C@@H](O[C@H]4[C@H](O[C@H]5CC[C@@H]6C7=C[C@H](O)[C@]89C(=O)O[C@@](C)(CCCC(C)C)[C@H]8CC[C@@]9(C)[C@@H]7CC[C@H]6C5(C)C)OC[C@@H](O[C@@H]5O[C@H](CO)[C@@H](O)[C@H](O[C@@H]6O[C@H](CO)[C@@H](O)[C@H](OC)[C@H]6O)[C@H]5O)[C@@H]4O)O[C@H]3C)O[C@H](CO)[C@H]2O)O[C@H](CO)[C@H]1O was tested, and the MIC (Candida albicans [8]) was 0.7 µM (≈ 0.989 µg/mL), the MIC (Cryptococcus neoformans [9]) was 0.7 µM (≈ 0.989 µg/mL) and the MIC (Aspergillus fumigatus) was 0.7 µM (≈ 0.989 µg/mL). For the same compound, the MIC (Trichophyton rubrum) was 0.7 µM (≈ 0.989 µg/mL), the MIC (Candida tropicalis [10]) was 0.7 µM (≈ 0.989 µg/mL) and the MIC (Pichia kudriavzevii [11]) was 0.7 µM (≈ 0.989 µg/mL).

— ChEMBL document CHEMBL5260795, “Antifungal potential of marine natural products” (Eur J Med Chem, 2017)
